Tests used:
LGR7 receptor = target: T1, LGR7 receptor (Homo sapiens, UniProt Q9HBX9); test: Whole cell [125I]-labelled H2 relaxin competition binding assay
T1 construct: expressed in transfected cells; host or cells: HEK293T
T1 sequence (Q9HBX9 1-757): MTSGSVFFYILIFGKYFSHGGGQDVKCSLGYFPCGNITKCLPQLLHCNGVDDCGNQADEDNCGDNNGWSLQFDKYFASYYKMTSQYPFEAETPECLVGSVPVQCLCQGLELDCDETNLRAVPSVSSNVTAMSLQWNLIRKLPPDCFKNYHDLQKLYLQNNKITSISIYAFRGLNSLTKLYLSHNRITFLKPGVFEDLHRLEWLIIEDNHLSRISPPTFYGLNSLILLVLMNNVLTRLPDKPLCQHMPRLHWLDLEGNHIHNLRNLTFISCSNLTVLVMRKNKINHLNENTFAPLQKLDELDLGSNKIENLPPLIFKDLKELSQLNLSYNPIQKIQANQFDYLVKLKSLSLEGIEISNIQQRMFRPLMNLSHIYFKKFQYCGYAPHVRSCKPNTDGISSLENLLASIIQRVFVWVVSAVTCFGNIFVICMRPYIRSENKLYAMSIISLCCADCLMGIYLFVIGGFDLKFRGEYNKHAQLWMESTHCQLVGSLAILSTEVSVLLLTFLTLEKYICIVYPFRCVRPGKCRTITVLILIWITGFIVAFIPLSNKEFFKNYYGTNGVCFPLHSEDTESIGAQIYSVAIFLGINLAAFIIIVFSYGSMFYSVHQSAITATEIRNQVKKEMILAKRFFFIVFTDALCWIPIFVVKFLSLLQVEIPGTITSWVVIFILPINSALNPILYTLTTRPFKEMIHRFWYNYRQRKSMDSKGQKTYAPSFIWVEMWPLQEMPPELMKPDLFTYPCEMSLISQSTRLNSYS
Experimental: Briefly, HEK293T cells were plated out into 24-well plates (450,000 cells per well) or 48-well plates (225,000 cells per well), and transfected with pcDNA3.1/zeo plasmid containing the receptor of interest the following day as described above in Example 2. […] Non-specific binding was determined by addition of excess unlabelled relaxin (500 nM). Data were analysed using GraphPad Prism.

LGR7 (RXFP1) receptor = target: T2, LGR7 (RXFP1) receptor (Homo sapiens, UniProt Q9HBX9); test: cAMP reporter gene assay (pCRE-β-galactosidase) in LGR7-expressing cells; assay type: cell-based
T2 construct: expressed in transfected cells; host or cells: HEK-293T
T2 sequence (Q9HBX9 1-757): T1 sequence (Q9HBX9 1-757)
Experimental: In the present study the inventors investigated the ability of chimeric polypeptides generated herein (see Example 1) to stimulate cAMP production in cells expressing either the LGR7 or LGR8 receptor.
Receptor cAMP signaling was assessed using a cAMP reporter gene assay. […] Transfected cells were incubated with increasing concentrations of peptides for 6 hrs after which the media was aspirated and the cells frozen at −80° C. overnight. The amount of cAMP-driven β-galactosidase expression in each well was determined by incubating the cells in 25 μl of lysis buffer (10 mM Na2HPO4, pH 8.0, 0.2 mM MgSO4, 0.01 mM MnCl2) for 10 minutes, 100 μl of assay buffer (100 mM Na2HPO4, pH 8.0, 2 mM MgSO4, 0.1 mM MnCl2, 0.5% Triton X-100, 40 mM B-mercaptoethanol) for a further 10 minutes before 25 μL of enzyme substrate solution (1 mg/ml chlorophenol red B-D galactopyranoside (Roche) in 100 mM Na2HPO4, pH 8.0, 2 mM MgSO4, 0.1 mM MnCl2) was added to each well and the plate incubated for 3 h or overnight. The absorbance of each well was determined at 570 nm using a Ceres UV900C plate reader (Bio-Tek Instruments, Vermont, USA).
All experiments were repeated at least three times with triplicate determinations within each assay.
Data are presented as the mean±S.E.M. of […] (number performed shown in parentheses in Table 1) performed in triplicate.

LGR8 (RXFP2) receptor = LGR8 (RXFP2) receptor (Homo sapiens, UniProt Q8WXD0); test: cell-based
Chain of LGR8 (RXFP2) receptor (Q8WXD0 whole entry): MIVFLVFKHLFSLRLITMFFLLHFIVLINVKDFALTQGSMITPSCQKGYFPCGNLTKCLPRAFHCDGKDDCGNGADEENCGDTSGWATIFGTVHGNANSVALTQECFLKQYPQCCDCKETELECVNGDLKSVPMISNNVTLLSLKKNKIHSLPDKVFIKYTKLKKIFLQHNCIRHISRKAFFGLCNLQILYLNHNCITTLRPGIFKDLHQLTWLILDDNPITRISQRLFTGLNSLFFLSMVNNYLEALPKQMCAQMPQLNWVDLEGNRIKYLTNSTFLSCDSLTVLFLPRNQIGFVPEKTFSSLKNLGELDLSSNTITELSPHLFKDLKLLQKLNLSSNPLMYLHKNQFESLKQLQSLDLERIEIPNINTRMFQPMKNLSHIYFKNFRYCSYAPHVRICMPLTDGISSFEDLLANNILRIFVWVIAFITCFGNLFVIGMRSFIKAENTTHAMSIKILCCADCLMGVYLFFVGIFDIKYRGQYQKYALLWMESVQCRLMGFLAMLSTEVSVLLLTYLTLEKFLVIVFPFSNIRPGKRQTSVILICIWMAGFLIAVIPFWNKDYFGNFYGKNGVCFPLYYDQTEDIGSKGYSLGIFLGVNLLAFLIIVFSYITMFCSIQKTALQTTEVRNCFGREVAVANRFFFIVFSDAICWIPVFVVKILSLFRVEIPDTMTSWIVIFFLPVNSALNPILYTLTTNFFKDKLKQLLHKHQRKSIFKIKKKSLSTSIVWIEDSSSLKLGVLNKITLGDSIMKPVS
Excerpt: Data are presented as the mean±S.E.M. of at least 1 experiment (number performed shown in parentheses in Table 1) performed in triplicate.

SMILES	Ki (LGR7 receptor)	EC50 (LGR7 (RXFP1) receptor)	EC50 (LGR8 (RXFP2) receptor)
CC[C@H](C)[C@@H]1NC(=O)[C@H](C)NC(=O)[C@H]([C@@H](C)CC)NC(=O)[C@H](CCC(N)=O)NC(=O)[C@H](C)NC(=O)[C@H](CCCNC(=N)N)NC(=O)[C@H](C(C)C)NC(=O)[C@H](CC(C)C)NC(=O)[C@H](CCC(=O)O)NC(=O)[C@H](CCCNC(=N)N)NC(=O)CNC(=O)[C@@H](NC(=O)[C@H](CC(C)C)NC(=O)[C@H](CCCCN)NC(=O)[C@@H](NC(=O)[C@@H](NC(=O)[C@H](CCC(=O)O)NC(=O)[C@H](CCC(=O)O)NC(=O)[C@H](CCSC)NC(=O)[C@H](Cc2c[nH]c3ccccc23)NC(=O)[C@H](CO)NC(=O)[C@@H](N)CC(=O)O)C(C)C)[C@@H](C)CC)CSSC[C@@H]2NC(=O)[C@@H](NC(=O)[C@H](Cc3ccc(O)cc3)NC(=O)[C@H](CCCNC(=N)N)NC(=O)[C@H](C)NC(=O)[C@@H]3CCCN3C(=O)[C@H](CC(N)=O)NC(=O)[C@@H](NC(=O)[C@H](C)NC(=O)[C@H](C)NC(=O)[C@H](C)N)[C@@H](C)O)CSSC[C@H](NC(=O)CNC(=O)[C@H](CO)NC(=O)[C@H](CC(C)C)NC2=O)C(=O)N[C@@H]([C@@H](C)O)C(=O)N[C@@H](CCC(N)=O)C(=O)N[C@@H](CCC(N)=O)C(=O)N[C@@H](CC(=O)O)C(=O)N[C@@H](CC(C)C)C(=O)N[C@@H](CC(C)C)C(=O)N[C@@H]([C@@H](C)O)C(=O)N[C@@H](CC(C)C)C(=O)N[C@H](C(=O)N2CCC[C@H]2C(=O)N[C@@H](Cc2ccc(O)cc2)C(=O)O)CSSC[C@@H](C(=O)NCC(=O)N[C@@H](CCSC)C(=O)N[C@@H](CO)C(=O)N[C@H](C(=O)N[C@@H](Cc2c[nH]c3ccccc23)C(=O)N[C@@H](CO)C(=O)O)[C@@H](C)O)NC1=O [H2-B/INSL3-A]	0.617 µM	> 1 µM	< 1 µM
CC[C@H](C)[C@@H]1NC(=O)[C@H](C)NC(=O)[C@H]([C@@H](C)CC)NC(=O)[C@H](CCC(N)=O)NC(=O)[C@H](C)NC(=O)[C@H](CCCNC(=N)N)NC(=O)[C@H](C(C)C)NC(=O)[C@H](CC(C)C)NC(=O)[C@H](CCC(=O)O)NC(=O)[C@H](CCCNC(=N)N)NC(=O)CNC(=O)[C@@H](NC(=O)[C@H](CC(C)C)NC(=O)[C@H](CCCCN)NC(=O)[C@@H](NC(=O)[C@@H](NC(=O)[C@H](CCC(=O)O)NC(=O)[C@H](CCC(=O)O)NC(=O)[C@H](CCSC)NC(=O)[C@H](Cc2c[nH]c3ccccc23)NC(=O)[C@H](CO)NC(=O)[C@@H](N)CC(=O)O)C(C)C)[C@@H](C)CC)CSSC[C@@H]2NC(=O)[C@@H](NC(=O)[C@H](CO)NC(=O)[C@H](CO)NC(=O)[C@H](CO)NC(=O)[C@H](CC(C)C)NC(=O)CNC(=O)[C@H](C)NC(=O)[C@H](CC(C)C)NC(=O)[C@@H](NC(=O)[C@@H](N)CC(=O)O)C(C)C)CSSC[C@H](NC(=O)CNC(=O)[C@H](Cc3c[nH]c4ccccc34)NC(=O)[C@H](CCCCN)NC2=O)C(=O)N[C@@H](CO)C(=O)N[C@@H](CCCCN)C(=O)N[C@@H](CO)C(=O)N[C@@H](CCC(=O)O)C(=O)N[C@@H]([C@@H](C)CC)C(=O)N[C@@H](CO)C(=O)N[C@@H](CO)C(=O)N[C@@H](CC(C)C)C(=O)N[C@H](C(=O)O)CSSC[C@@H](C(=O)NCC(=O)N[C@@H](CCSC)C(=O)N[C@@H](CO)C(=O)N[C@H](C(=O)N[C@@H](Cc2c[nH]c3ccccc23)C(=O)N[C@@H](CO)C(=O)O)[C@@H](C)O)NC1=O [H2-B/H3-A]	0.158 µM	0.00794 µM	4.57 µM
